In patent publication US8461328B2, “Tricyclic heterocyclic compounds, compositions and methods of use thereof” (Genentech, Inc., priority 2010, dated 2013):
Counter-ions that a name gives are not always drawn.

Key:
Assay type in all cases: biochemical
TYK2 = molecular target: T1, TYK2 (Homo sapiens, UniProt P29597); assay: TYK2 inhibition (Table 4)
T1 construct: made in house; host or cells: SF9 insect cells (baculovirus)
T1 sequence (P29597 873-1187): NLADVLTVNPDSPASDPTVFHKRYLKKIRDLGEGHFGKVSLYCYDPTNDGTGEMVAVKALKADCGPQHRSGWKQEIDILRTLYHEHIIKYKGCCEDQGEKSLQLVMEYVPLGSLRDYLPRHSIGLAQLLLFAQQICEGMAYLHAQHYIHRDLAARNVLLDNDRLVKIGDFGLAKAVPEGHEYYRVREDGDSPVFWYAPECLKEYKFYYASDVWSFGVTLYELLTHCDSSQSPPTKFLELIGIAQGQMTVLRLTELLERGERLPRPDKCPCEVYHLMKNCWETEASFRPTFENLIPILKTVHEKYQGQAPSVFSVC

JAK3 = molecular target: T2, JAK3 (Homo sapiens, UniProt P52333); assay: JAK3 inhibition (Table 4); conditions: read-out: JAK3 Ki
T2 construct: made in house; host or cells: SF9 insect cells (baculovirus)

JAK2 = molecular target: T3, JAK2 (Homo sapiens, UniProt O60674); assay: JAK2 inhibition (Table 4); conditions: read-out: JAK2 Ki
T3 construct: made in house; host or cells: SF9 insect cells (baculovirus)

JAK1 = molecular target: T4, JAK1 (Homo sapiens, UniProt P23458); assay: JAK1 inhibition (Table 4); conditions: read-out: JAK1 Ki
T4 construct: made in house; host or cells: SF9 insect cells (baculovirus)
T4 sequence (P23458 852-1154): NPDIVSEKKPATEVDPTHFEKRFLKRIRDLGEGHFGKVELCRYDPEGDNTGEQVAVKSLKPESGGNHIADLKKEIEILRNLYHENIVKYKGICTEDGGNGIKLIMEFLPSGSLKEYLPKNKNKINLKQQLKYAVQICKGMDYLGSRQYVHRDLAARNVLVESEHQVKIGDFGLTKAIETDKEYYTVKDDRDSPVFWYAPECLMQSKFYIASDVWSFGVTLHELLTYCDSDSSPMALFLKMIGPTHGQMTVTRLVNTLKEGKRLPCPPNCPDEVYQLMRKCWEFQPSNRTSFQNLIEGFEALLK

T3 sequence (O60674 812-1132): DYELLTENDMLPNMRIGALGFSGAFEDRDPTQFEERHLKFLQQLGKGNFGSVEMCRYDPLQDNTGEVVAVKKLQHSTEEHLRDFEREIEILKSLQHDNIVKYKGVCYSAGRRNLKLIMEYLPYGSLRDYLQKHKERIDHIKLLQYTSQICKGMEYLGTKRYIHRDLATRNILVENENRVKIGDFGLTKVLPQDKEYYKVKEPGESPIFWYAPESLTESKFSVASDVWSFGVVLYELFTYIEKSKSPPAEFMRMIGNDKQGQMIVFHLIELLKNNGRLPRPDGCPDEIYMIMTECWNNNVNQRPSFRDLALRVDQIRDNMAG
T2 sequence (P52333 783-1124): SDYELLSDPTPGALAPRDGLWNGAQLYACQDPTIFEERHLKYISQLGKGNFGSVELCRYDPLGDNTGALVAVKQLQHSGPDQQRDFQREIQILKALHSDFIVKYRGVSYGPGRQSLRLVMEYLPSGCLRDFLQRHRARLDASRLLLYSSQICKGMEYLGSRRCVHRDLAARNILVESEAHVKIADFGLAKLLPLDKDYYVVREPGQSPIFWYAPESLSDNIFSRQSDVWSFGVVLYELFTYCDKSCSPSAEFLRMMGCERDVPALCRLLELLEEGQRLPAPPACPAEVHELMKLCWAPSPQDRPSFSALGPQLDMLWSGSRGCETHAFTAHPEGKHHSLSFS

SMILES	Ki (TYK2) [nM]	Ki (JAK3) [nM]	Ki (JAK2) [nM]	Ki (JAK1) [nM]
O=C(Cc1nc2cnc3[nH]ccc3c2n1C1CCN(Cc2cccnc2)CC1)N1CCC(F)(F)CC1 [Example 286, 1-(4,4-Difluoro-piperidin-yl)-2-[1-(1-pyridin-3-ylmethyl-piperidin-4-yl)-1,6-dihydro-1,3,5,6-tetraaza-as-indacen-2-yl]-ethanone]	442	6.46	47.8	3.56
CC(=O)N1CCC[C@@H](n2cnc3cnc4[nH]ccc4c32)C1 [Example 30, 1-[(R)-3-(6H-1,3,5,6-Tetraaza-as-indacen-1-yl)-piperidin-1-yl]ethanone]	141	139	42.2	29.2
COCCN(C)C(=O)NC1CCC(n2cnc3cnc4[nH]ccc4c32)CC1 (stereo not shown) [Example 763, 1-(2-Methoxy-ethyl)-1-methyl-3-[4-(6H-1,3,5,6-tetraaza-as-indacen-1-yl)-cyclohexyl]-urea]	223	278	42.2	12.5
CC(O)CN1CCC(n2c(C(C)O)nc3cnc4[nH]ccc4c32)CC1 (stereo not shown) [Example 934, 1-{4-[2-(1-Hydroxy-ethyl)-6H-1,3,5,6-tetraaza-as-indacen-1-yl]-piperidin-1-yl}-propan-2-ol]	465	549	669	12.9
N#CC1(C(=O)N2CCC[C@@H](n3cnc4cnc5[nH]ccc5c43)C2)CCC1 [Example 316, 1-[(R)-3-(6H-1,3,5,6-Tetraaza-as-indacen-1-yl)-piperidine-carbonyl]-cyclobutanecarbonitrile]	17.7	9.24	3.2	2.77
CCn1nccc1CN1CCC(n2c([C@@H](C)O)nc3cnc4[nH]ccc4c32)CC1 [Example 820, (R)-1-{1-[1-(2-Ethyl-2H-pyrazol-3-ylmethyl)-piperidin-4-yl]-1,6-dihydro-1,3,5,6-tetraaza-as-indacen-2-yl}-ethanol]	166	35.8	61	12
N#Cc1nc2cnc3[nH]ccc3c2n1C1CCN(Cc2ccccc2)CC1 [Example 163, 1-(1-Benzyl-piperidin-4-yl)-1,6-dihydro-1,2,3,5,6-tetraaza-as-indacene-2-carbonitrile]	607	28.1	10	11.2
Cc1nc2cnc3[nH]ccc3c2n1C1CCC(NC(=O)CC(F)(F)F)C1 (racemic) [Example 730, 3,3,3-Trifluoro-N-[3-(2-methyl-6H-1,3,5,6-tetraaza-as-indacen-1-yl)-cyclopentyl]-propionamide]	21.1	1.87	7.24	1.49
CC(C)c1nc2cnc3[nH]ccc3c2n1C1CCN(CCC#N)CC1 [Example 281, 3-[4-(2-Isopropyl-6H-1,3,5,6-tetraaza-as-indacen-1-yl)-piperidin-1-yl]-propionitrile]	171	16.3	25.1	7.49
CCNC(=O)Cc1nc2cnc3[nH]ccc3c2n1C1CCCOC1 (racemic) [Example 962, N-Ethyl-2-[1-(tetrahydro-pyran-3-yl)-1,6-dihydro-1,3,5,6-tetraaza-as-indacen-2-yl]-acetamide]	399	177	208	35.8
Cc1nc2cnc3[nH]ccc3c2n1C1CCN(Cc2ccccc2)CC1C (racemic) [Example 151, Racemic 1-(1-benzyl-3-methyl-piperidin-4-yl)-2-methyl-1,6-dihydro-1,2,3,5,6-tetraaza-as-indacene dihydrochloride salt]	31.2	13.5	2.27	1.78
Cc1nc2cnc3[nH]ccc3c2n1C1(C)CCN(CCC#N)CC1 [Example 581, 3-[4-Methyl-4-(2-methyl-6H-1,2,3,5,6-tetraaza-as-indacen-1-yl)-piperidin-1-yl]-propionitrile]	275	280	114	26.8
O=C(CC(F)(F)F)N1CCC[C@@H](n2cnc3cnc4[nH]ccc4c32)C1 [Example 296]	16.2	19.5	4.75	3.3
CS(=O)(=O)NCc1nc2cnc3[nH]ccc3c2n1C1CC2CCC1O2 (single isomer, unassigned) [Example 849, endo-N-[1-(7-Oxa-bicyclo[2.2.1]hept-2-yl)-1,6-dihydro-1,3,5,6-tetraaza-as-indacen-2-ylmethyl]-methanesulfonamide]	459	592	515	50.8
CCN1CC[C@@H](n2nnc3cnc4[nH]ccc4c32)[C@@H](F)C1 [Example 522, 1-((3S,4R)-1-Ethyl-3-fluoro-piperidin-4-yl)-1,6-dihydro-1,2,3,5,6-pentaaza-as-indacene]	356	180	56.9	38.5
Cc1nc2cnc3[nH]ccc3c2n1C1CCN(S(C)(=O)=O)CC1 [Example 86, 1-(1-Methanesulfonyl-piperidin-4-yl)-2-methyl-1,6-dihydro-1,3,5,6-tetraaza-as-indacene]	48.6	71.6	17.8	7.53
O=C(Cc1nc2cnc3[nH]ccc3c2n1C1CCN(Cc2ccccc2)CC1)N1CCS(=O)(=O)CC1 [Example 102, 2-[1-(1-Benzyl-piperidin-4-yl)-1,6-dihydro-1,3,5,6-tetraaza-as-indacen-2-yl]-1-(1,1-dioxo-1λ*6*thiomorpholin-4-yl)ethanone]	442	9.7	51.4	5.78
CC(C)COCc1nc2cnc3[nH]ccc3c2n1C1CCN(CCC#N)CC1 [Example 407, 3-[4-(2-Isobutoxymethyl-6H-1,3,5,6-tetraaza-as-indacen-1-yl)-piperidin-1-yl]-propionitrile]	607	170	122	81.2
C[C@@H](O)c1nc2cnc3[nH]ccc3c2n1[C@H]1COCCC1(F)F [Example 1011, (R)-1-[1-((S)-4,4-Difluoro-tetrahydro-pyran-3-yl)-1,6-dihydro-1,3,5,6-tetraaza-as-indacen-2-yl]-ethanol]	81.7	79.3	133	18
FC(F)(F)c1nc(CN2CCC(n3cnc4cnc5[nH]ccc5c43)CC2)cs1 [Example 295, 1-[1-(2-Trifluoromethyl-thiazol-4-ylmethyl)-piperidin-4-yl]-1,6-dihydro-1,3,5,6-tetraaza-as-indacene]	28.4	9.86	2.04	1.05
OCc1nc2cnc3[nH]ccc3c2n1C1CCN(CCF)CC1 [Example 508, {1-[1-(2-Fluoro-ethyl)-piperidin-4-yl]-1,6-dihydro-1,3,5,6-tetraaza-as-indacen-2-yl}-methanol]	10.2	23.2	10.3	2.14
CC1(n2cnc3cnc4[nH]ccc4c32)CCCN(C(=O)CC#N)C1 (racemic) [Example 706, 3-[3-Methyl-3-(6H-1,2,3,5,6-tetraaza-as-indacen-1-yl)-piperidin-1-yl]-3-oxo-propionitrile]	207	20.6	67.5	28.1
CC(O)c1nc2cnc3[nH]ccc3c2n1C1CCN(CC(=O)N2CCCCC2)CC1 (racemic) [Example 529, 2-{4-[2-(1-Hydroxy-ethyl)-6H-1,3,5,6-tetraaza-as-indacen-1-yl]-piperidin-1-yl}-1-piperidin-1-yl-ethanone]	2170	561	284	19.6
CC(O)c1nc2cnc3[nH]ccc3c2n1C1CCN(Cc2ccccc2)CC1 (racemic) [Example 157, Racemic 1-[1-(1-Benzyl-piperidin-4-yl)-1,6-dihydro-1,2,3,5,6-tetraaza-as-indacen-2-yl]-ethanol]	207	34	25.1	3.59
CC(C)(C)OC(=O)N1CCC[C@@H](n2cnc3cnc4[nH]ccc4c32)C1 [Example 349, (R)-3-(6H-1,3,5,6-Tetraaza-as-indacen-1-yl)-piperidine-1-carboxylic acid tert-butyl ester]	113	120	19	15.3
CC(O)c1nc2cnc3[nH]ccc3c2n1C1CC2CCC1O2 (stereo not shown) [Example 906, 1-[1-(7-Oxa-bicyclo[2.2.1]hept-2-yl)-1,6-dihydro-1,3,5,6-tetraaza-as-indacen-2-yl]-ethanol]	119	273	271	51.8
O=C(N[C@H]1CC[C@H](n2c(CO)nc3cnc4[nH]ccc4c32)CC1)OCC1CC1 [Example 601, Trans[4-(2-hydroxymethyl-6H-1,2,3,5,6-tetraaza-as-indacen-1-yl)-cyclohexyl]-carbamic acid cyclopropylmethyl ester]	149	111	57.1	3.89
CC(=O)NC1CCCC(n2cnc3cnc4[nH]ccc4c32)C1 (single isomer, unassigned) [Example 478, N-[3-(6H-1,3,5,6-Tetraaza-as-indacen-1-yl)-cyclohexyl]-acetamide]	425	527	125	83.3
